Laboratory results taken from the CheMixHub viscosity set.

Assay: xn = mol fraction of the nth substance listed
Conditions: 101 kPa

CC(=O)OCCC(C)C + CCCCN
303.15 K
Conditions	viscosity [mPa·s]
x2 = 0.2734	0.7086
x2 = 0.4416	0.6996
x2 = 0.5646	0.6833
x2 = 0.6446	0.6711
x2 = 0.7489	0.6443
x2 = 0.8075	0.6212
x2 = 0.8664	0.5934
x2 = 0.8969	0.5868

Cl + CCCCCCCO
298.15 K
Conditions	viscosity [mPa·s]
x1 = 0.05	6.22
x1 = 0.1	7.02
x1 = 0.15	7.6
x1 = 0.19	8.18
x1 = 0.23	8.66
x1 = 0.26	9.02
x1 = 0.29	9.22
x1 = 0.32	9.3
x1 = 0.34	9.26
x1 = 0.37	9.08
x1 = 0.39	8.86
x1 = 0.41	8.62
x1 = 0.43	8.4
x1 = 0.45	8.2

CCCOCC(C)OCC(C)O (stereo not given) + CCCO
298.15 K
Conditions	viscosity [mPa·s]
x1 = 0.0061	1.977
x1 = 0.0137	1.998
x1 = 0.028	2.036
x1 = 0.0763	2.163
x1 = 0.1234	2.28
x1 = 0.1783	2.416
x1 = 0.2361	2.556
x1 = 0.3132	2.74
x1 = 0.3684	2.862
x1 = 0.4279	2.985
x1 = 0.4905	3.102
x1 = 0.5267	3.164
x1 = 0.5714	3.239
x1 = 0.6634	3.388
x1 = 0.7271	3.495
x1 = 0.8017	3.617
x1 = 0.8701	3.728
x1 = 0.9055	3.78
x1 = 0.9497	3.837

C=C(C)C(=O)OCc1ccccc1 + O=C1CCCCC1
viscosity [mPa·s]
Conditions	x2 = 0.1	x2 = 0.1999	x2 = 0.3	x2 = 0.3999	x2 = 0.5	x2 = 0.6	x2 = 0.7	x2 = 0.8	x2 = 0.9
298.15 K	2.208	2.141	2.079	2.038	2.002	1.972	1.95	1.943	1.934
308.15 K	1.816	1.765	1.718	1.687	1.656	1.632	1.617	1.602	1.589
318.15 K	1.519	1.484	1.447	1.422	1.398	1.383	1.369	1.356	1.348

CC(=O)OCCC(C)C + Cc1cccc(C)c1
viscosity [mPa·s]
Conditions	298.15 K	308.15 K
x1 = 0.0471	0.58	0.529
x1 = 0.1507	0.583	0.538
x1 = 0.286	0.593	0.555
x1 = 0.3495	0.599	0.564
x1 = 0.4475	0.614	0.582
x1 = 0.5021	0.625	0.594
x1 = 0.5481	0.634	0.604
x1 = 0.6499	0.659	0.63
x1 = 0.7526	0.69	0.66
x1 = 0.8535	0.724	0.693
x1 = 0.942	0.757	0.725
